Test results: patent US9662323B2, “Compounds having muscarinic receptor antagonist and beta2 adrenergic receptor agonist activity” (CHIESI FARMACEUTICI S.p.A., priority 2015, dated 2017)

Key:
Human β2 adrenoceptor = molecular target: T1, Human β2 adrenoceptor (Homo sapiens, UniProt P07550); test: β2 Adrenoceptor Radioligand Binding Assay; settings: human β2 adrenoceptor membranes, 125-I Cyanopindolol; read-out: B2 binding affinity (Ki class)
T1 construct: purchased Perkin Elmer
Summary of the method: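 Membranes were incubated 1 h at room temperature in 25 mM HEPES, 0.5% BSA, 1 mM EDTA, 0.02% ascorbic acid, pH 7.4, with 0.5% DMSO final. Bound radioligand was collected by GF/C filtration and counted by scintillation. IC50 values from competition curves were converted to Ki by Cheng–Prusoff.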

Human M3 receptor = molecular target: T2, Human M3 receptor (Homo sapiens, UniProt P20309); test: M3 Receptor Radioligand Binding Assay; settings: human M3 receptor membranes, [3H]-N-methyl scopolamine; read-out: M3 binding affinity (Ki class)
T2 construct: purchased Perkin Elmer
Summary of the method: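 Radioligand binding with 0.5% (v/v) final DMSO, incubated 2 h at room temperature with shaking. Membranes were collected on GF/C filters pre-treated with 0.5% polyethyleneimine, washed four times with assay buffer, and counted by scintillation.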

T1 sequence (P07550 whole entry): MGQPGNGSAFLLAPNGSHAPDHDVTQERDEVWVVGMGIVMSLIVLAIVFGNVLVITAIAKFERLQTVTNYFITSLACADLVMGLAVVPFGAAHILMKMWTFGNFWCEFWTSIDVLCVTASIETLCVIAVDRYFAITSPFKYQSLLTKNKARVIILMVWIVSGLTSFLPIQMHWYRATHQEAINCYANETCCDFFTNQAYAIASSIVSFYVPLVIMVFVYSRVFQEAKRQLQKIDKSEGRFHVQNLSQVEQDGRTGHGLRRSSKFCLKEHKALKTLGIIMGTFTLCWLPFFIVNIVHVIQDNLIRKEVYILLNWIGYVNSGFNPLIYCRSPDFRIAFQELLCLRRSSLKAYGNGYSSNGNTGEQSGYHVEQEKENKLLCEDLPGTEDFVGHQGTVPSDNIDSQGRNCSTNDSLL
T2 sequence (P20309 whole entry): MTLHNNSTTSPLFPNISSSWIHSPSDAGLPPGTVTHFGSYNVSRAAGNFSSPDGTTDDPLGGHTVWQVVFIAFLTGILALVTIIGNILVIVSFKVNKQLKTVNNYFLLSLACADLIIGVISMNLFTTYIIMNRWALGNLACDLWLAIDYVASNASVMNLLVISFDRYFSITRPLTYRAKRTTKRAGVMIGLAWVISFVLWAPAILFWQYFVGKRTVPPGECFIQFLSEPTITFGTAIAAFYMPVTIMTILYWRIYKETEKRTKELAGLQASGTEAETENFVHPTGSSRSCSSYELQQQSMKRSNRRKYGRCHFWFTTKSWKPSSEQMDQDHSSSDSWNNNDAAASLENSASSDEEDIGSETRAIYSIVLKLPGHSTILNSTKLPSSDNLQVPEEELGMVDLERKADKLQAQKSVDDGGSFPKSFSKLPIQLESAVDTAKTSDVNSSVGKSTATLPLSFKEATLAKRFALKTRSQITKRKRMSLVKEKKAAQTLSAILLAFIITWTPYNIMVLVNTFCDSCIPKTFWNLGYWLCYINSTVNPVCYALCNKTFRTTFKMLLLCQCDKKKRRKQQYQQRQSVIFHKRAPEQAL

Compound	Ki (Human β2 adrenoceptor) [nM]	Ki (Human M3 receptor) [nM]
CC(=O)N(Cc1ccc(CNC[C@H](O)c2ccc(O)c3[nH]c(=O)ccc23)cc1)Cc1ccc(C(=O)N2CCC(C(=O)O[C@H]3CN4CCC3CC4)(c3ccccc3)CC2)cc1 [Compound 57, (R)-Quinuclidin-3-yl 1-(4-((N-(4-((((R)-2-hydroxy-2-(8-hydroxy-2-oxo-1,2-dihydroquinolin-5-yl)ethyl)amino)methyl)benzyl)acetamido)methyl)benzoyl)-4-phenylpiperidine-4-carboxylate]	1 to 10	< 1
O=C(CCc1ccc(OCc2ccc(CNC[C@H](O)c3ccc(O)c4[nH]c(=O)ccc34)cc2)cc1)N1CCC(C(=O)O[C@H]2CN3CCC2CC3)(c2ccccc2)CC1 [Compound 56, (R)-Quinuclidin-3-yl 1-(3-(4-((4-((((R)-2-hydroxy-2-(8-hydroxy-2-oxo-1,2-dihydroquinolin-5-yl)ethyl)amino)methyl)benzyl)oxy)phenyl)propanoyl)-4-phenylpiperidine-4-carboxylate]	< 1	1 to 10
O=C(c1ccc(OCCCCCCNC[C@H](O)c2ccc(O)c3[nH]c(=O)ccc23)cc1)N1CC(C(=O)O[C@H]2CN3CCC2CC3)(c2ccccc2)C1 [Compound 2A, (R)-Quinuclidin-3-yl 1-(4-((6-(((R)-2-hydroxy-2-(8-hydroxy-2-oxo-1,2-dihydroquinolin-5-yl)ethyl)amino)hexyl)oxy)benzoyl)-3-phenylazetidine-3-carboxylate]	< 1	< 1
O=C(Cc1ccc(CC(=O)N(CCCNC[C@H](O)c2ccc(O)c3[nH]c(=O)ccc23)Cc2ccccc2N2CCOCC2)cc1)N1CCC(C(=O)O[C@H]2CN3CCC2CC3)(c2ccccc2)CC1 [Compound 44, (R)-Quinuclidin-3-yl 1-(2-(4-(2-((3-(((R)-2-hydroxy-2-(8-hydroxy-2-oxo-1,2-dihydroquinolin-5-yl)ethyl)amino)propyl)(2-morpholinobenzyl)amino)-2-oxoethyl)phenyl)acetyl)-4-phenylpiperidine-4-carboxylate]	1 to 10	< 1
O=C(Cc1ccc(CC(=O)N(CCCNC[C@H](O)c2ccc(O)c3[nH]c(=O)ccc23)Cc2ccccc2)cc1)N1CCC(C(=O)O[C@H]2CN3CCC2CC3)(c2ccccc2)CC1 [Compound 36, (R)-Quinuclidin-3-yl 1-(2-(4-(2-(benzyl(3-(((R)-2-hydroxy-2-(8-hydroxy-2-oxo-1,2-dihydroquinolin-5-yl)ethyl)amino)propyl)amino)-2-oxoethyl)phenyl)acetyl)-4-phenylpiperidine-4-carboxylate]	< 1	< 1
O=C(Cc1ccc(OCCCCCNC[C@H](O)c2ccc(O)c3[nH]c(=O)ccc23)c(-c2ccccc2)c1)N1CCC(C(=O)O[C@H]2CN3CCC2CC3)(c2ccccc2)CC1 [Compound 15, (R)-Quinuclidin-3-yl 1-(2-(6-((5-(((R)-2-hydroxy-2-(8-hydroxy-2-oxo-1,2-dihydroquinolin-5-yl)ethyl)amino)pentyl)oxy)-[1,1′-biphenyl]-3-yl)acetyl)-4-phenylpiperidine-4-carboxylate]	< 1	> 10
CN(CCCNC[C@H](O)c1ccc(O)c2[nH]c(=O)ccc12)C(=O)c1ccc(CCC(=O)N2CCC(C(=O)O[C@H]3CN4CCC3CC4)(c3ccccc3)CC2)cc1 [Compound 53, (R)-Quinuclidin-3-yl 1-(3-(4-((3-(((R)-2-hydroxy-2-(8-hydroxy-2-oxo-1,2-dihydroquinolin-5-yl)ethyl)amino)propyl)(methyl)carbamoyl)phenyl)propanoyl)-4-phenylpiperidine-4-carboxylate]	1 to 10	1 to 10
O=C(CCc1ccc(OCc2ccc(CNC[C@H](O)c3ccc(O)c4[nH]c(=O)ccc34)cc2)cc1)N1CC(C(=O)O[C@H]2CN3CCC2CC3)(c2ccccc2)C1 [Compound 13A, (R)-Quinuclidin-3-yl 1-(3-(4-((4-((((R)-2-hydroxy-2-(8-hydroxy-2-oxo-1,2-dihydroquinolin-5-yl)ethyl)amino)methyl)benzyl)oxy)phenyl)propanoyl)-3-phenylazetidine-3-carboxylate]	1 to 10	1 to 10
O=C(NCCCCNC[C@H](O)c1ccc(O)c2[nH]c(=O)ccc12)c1ccc(C(=O)N2CC(C(=O)O[C@H]3CN4CCC3CC4)(c3ccccc3)C2)s1 [Compound 11A, (R)-Quinuclidin-3-yl 1-(5-((4-(((R)-2-hydroxy-2-(8-hydroxy-2-oxo-1,2-dihydroquinolin-5-yl)ethyl)amino)butyl)carbamoyl)thiophene-2-carbonyl)-3-phenylazetidine-3-carboxylate]	< 1	1 to 10
Cc1cc(CC(=O)N2CCC(C(=O)O[C@H]3CN4CCC3CC4)(c3ccccc3)CC2)ccc1OCCCCCNC[C@H](O)c1ccc(O)c2[nH]c(=O)ccc12 [Compound 12, (R)-Quinuclidin-3-yl 1-(2-(4-((5-(((R)-2-hydroxy-2-(8-hydroxy-2-oxo-1,2-dihydroquinolin-5-yl)ethyl)amino)pentyl)oxy)-3-methylphenyl)acetyl)-4-phenylpiperidine-4-carboxylate]	> 10	1 to 10
O=C(c1ccc(OCc2ccc(CNC[C@H](O)c3ccc(O)c4[nH]c(=O)ccc34)cc2)cc1)N1CC(C(=O)O[C@H]2CN3CCC2CC3)(c2ccccc2)C1 [Compound 8A, (R)-Quinuclidin-3-yl 1-(4-((4-((((R)-2-hydroxy-2-(8-hydroxy-2-oxo-1,2-dihydroquinolin-5-yl)ethyl)amino)methyl)benzyl)oxy)benzoyl)-3-phenylazetidine-3-carboxylate]	< 1	< 1
CN(CCCNC[C@H](O)c1ccc(O)c2[nH]c(=O)ccc12)C(=O)Cc1ccc(CC(=O)N2CCC(C(=O)O[C@H]3CN4CCC3CC4)(c3ccccc3)CC2)cc1 [Compound 47, (R)-Quinuclidin-3-yl 1-(2-(4-(2-((3-(((R)-2-hydroxy-2-(8-hydroxy-2-oxo-1,2-dihydroquinolin-5-yl)ethyl)amino)propyl)(methyl)amino)-2-oxoethyl)phenyl)acetyl)-4-phenylpiperidine-4-carboxylate]	1 to 10	1 to 10
O=C(c1ccc(C(=O)N(CCCNC[C@H](O)c2ccc(O)c3[nH]c(=O)ccc23)Cc2ccccc2)s1)N1CCC(C(=O)O[C@H]2CN3CCC2CC3)(c2ccccc2)CC1 [Compound 28, (R)-Quinuclidin-3-yl 1-(5-(benzyl(3-(((R)-2-hydroxy-2-(8-hydroxy-2-oxo-1,2-dihydroquinolin-5-yl)ethyl)amino)propyl)carbamoyl)thiophene-2-carbonyl)-4-phenylpiperidine-4-carboxylate]	< 1	1 to 10
O=C(NCc1ccc(CNC[C@H](O)c2ccc(O)c3[nH]c(=O)ccc23)cc1)c1ccc(C(=O)N2CC(C(=O)O[C@H]3CN4CCC3CC4)(c3ccccc3)C2)cc1 [Compound 9A, (R)-Quinuclidin-3-yl 1-(4-((4-((((R)-2-hydroxy-2-(8-hydroxy-2-oxo-1,2-dihydroquinolin-5-yl)ethyl)amino)methyl)benzyl)carbamoyl)benzoyl)-3-phenylazetidine-3-carboxylate]	1 to 10	< 1
O=C(c1ccc(OCCCCCNC[C@H](O)c2ccc(O)c3[nH]c(=O)ccc23)c(F)c1)N1CCC(C(=O)O[C@H]2CN3CCC2CC3)(c2ccccc2)CC1 [Compound 9, (R)-Quinuclidin-3-yl 1-(3-fluoro-4-((5-(((R)-2-hydroxy-2-(8-hydroxy-2-oxo-1,2-dihydroquinolin-5-yl)ethyl)amino)pentyl)oxy)benzoyl)-4-phenylpiperidine-4-carboxylate]	> 10	1 to 10
